This assay deals with CD8+ T cells from HLA-A*24 healthy donors. As to the kind of experiment: In vitro immunogenicity: in vitro priming of CD8+ T cells with pMHC/anti-CD28 coated beads (aAPC), A*2402 multimer staining. Conditions: HLA-A*2402 restricted, three stimulation cycles; for Positive wells/wells tested [%]: at least 24 wells evaluable for each peptide, positive well = at least 1% specific multimer+ among CD8+ and at least 10x median of negative controls; for Positive donors/donors tested [%]: at least two donors evaluable for each peptide. It is filed as cell-based, human. The text has this:
To get information regarding the immunogenicity of the TUMAPs of the present invention, we performed investigations using a well established in vitro stimulation platform already described by (Walter, S, Herrgen, L, Schoor, O, Jung, G, Wernet, D, Buhring, H J, Rammensee, H G, and Stevanovic, S; 2003, Cutting edge: predetermined avidity of human CD8 T cells expanded on calibrated MHC/anti-CD28-coated microspheres, J. Immunol., 171, 4974-4978).
In order to perform in vitro stimulations by artificial antigen presenting cells (aAPC) loaded with peptide-MHC complex (pMHC) and anti-CD28 antibody, we first isolated CD8 T cells from fresh HLA-A*24 leukapheresis products of healthy donors obtained from the Blood Bank Tuebingen.
CD8 T cells were either directly enriched from the leukapheresis product or PBMCs (peripheral blood mononuclear cells) were isolated first by using standard gradient separation medium (PAA, Cölbe, Germany). Isolated CD8 lymphocytes or PBMCs were incubated until use in T-cell medium (TCM) consisting of RPMI-Glutamax (Invitrogen, Karlsruhe, Germany) supplemented with 10% heat inactivated human AB serum (PAN-Biotech, Aidenbach, Germany), 100 U/ml Penicillin/100 μg/ml Streptomycin (Cambrex, Cologne, Germany), 1 mM sodium pyruvate (CC Pro, Oberdorla, Germany), 20 μg/ml Gentamycin (Cambrex). 2.5 ng/ml IL-7 (PromoCell, Heidelberg, Germany) and 10 U/ml IL-2 (Novartis Pharma, Nürnberg, Germany) were also added to the TCM at this step. Isolation of CD8+ lymphocytes was performed by positive selection using CD8 MicroBeads (Miltenyi Biotec, Bergisch-Gladbach, Germany).
Generation of pMHC/anti-CD28 coated beads, T-cell stimulations and readout was performed as described before (Walter et al. 4974-78) with minor modifications. Briefly, biotinylated peptide-loaded recombinant HLA-A*2402 molecules lacking the transmembrane domain and biotinylated at the carboxy terminus of the heavy chain were produced. The purified costimulatory mouse IgG2a anti human CD28 Ab 9.3 (Jung, Ledbetter, and Muller-Eberhard 4611-15) was chemically biotinylated using Sulfo-N-hydroxysuccinimidobiotin as recommended by the manufacturer (Perbio, Bonn, Germany).
800.000 beads/200 μl were coated in 96-well plates in the presence of 600 ng biotin anti-CD28 plus 200 ng relevant biotin-pMHC (high density beads). Stimulations were initiated in 96-well plates by co-incubating 1×10^6 CD8+ T cells with 2×10^5 washed coated beads in 200 μl TCM supplemented with 5 ng/ml IL-12 (PromoCell) for 3-4 days at 37° C. Half of the medium was then exchanged by fresh TCM supplemented with 80 U/ml IL-2 and incubating was continued for 3-4 days at 37° C. This stimulation cycle was performed for a total of three times. Finally, multimeric analyses were performed by staining the cells with Live/dead-Aqua dye (Invitrogen, Karlsruhe, Germany), CD8-FITC antibody clone SK1 (BD, Heidelberg, Germany) and PE- or APC-coupled A*2402 MHC multimers. For analysis, a BD LSRII SORP cytometer equipped with appropriate lasers and filters was used. Peptide specific cells were calculated as percentage of total CD8+ cells. Evaluation of multimeric analysis was done using the FlowJo software (Tree Star, Oreg., USA).

“IYNGKLFDLL (listed as Homo sapiens) [KIF2C-001]”: the “Positive wells/wells tested [%]” value is 2% and the “Positive donors/donors tested [%]” value came out at 13%.

Regarding “VYTTSYQQI (listed as Homo sapiens) [NFYB-001]”, the “Positive wells/wells tested [%]” value stood at 7% and the “Positive donors/donors tested [%]” value was 50%.

As for “AYAIIKEEL (listed as Homo sapiens) [ATAD2-001]”, the “Positive wells/wells tested [%]” value stood at 4% and the “Positive donors/donors tested [%]” value is given as 50%.

As for VWSDVTPLTF [PROM1-001], the “Positive wells/wells tested [%]” value came to 26% and the “Positive donors/donors tested [%]” value came out at 83%.

“RYLWATVTI (listed as Homo sapiens) [ASPM-001]”: the “Positive wells/wells tested [%]” value is given as 3% and the “Positive donors/donors tested [%]” value is listed as 17%.

NYLLYVSNF [MMP11-001]: the “Positive wells/wells tested [%]” value is 11% and the “Positive donors/donors tested [%]” value is on record as 33%.

On to “YYNAAGFNKL (listed as Homo sapiens) [UQCRB-001]”, for which the “Positive wells/wells tested [%]” value was determined as 38% and the “Positive donors/donors tested [%]” value is on record as 100%.

Take “VYGIRLEHF (listed as Homo sapiens) [NUF2-001]”: the “Positive wells/wells tested [%]” value came to 25% and the “Positive donors/donors tested [%]” value worked out at 100%.

As to “RFLSGIINF (listed as Homo sapiens) [NUF2-002]”, the “Positive wells/wells tested [%]” value was 4% and the “Positive donors/donors tested [%]” value is reported as 50%.

As for “LYQILQGIVF (listed as Homo sapiens) [CDC2-001, gastric cancer associated TUMAP encoded by CDK1]”, the “Positive wells/wells tested [%]” value is given as 28% and the “Positive donors/donors tested [%]” value stood at 88%.

For “VFIFKGNQF (listed as Homo sapiens) [MMP3-001]”, the “Positive wells/wells tested [%]” value stood at 1% and the “Positive donors/donors tested [%]” value amounted to 13%.

For “NYLLYVSNF [MST1R-001] (listed as Homo sapiens)”, the “Positive wells/wells tested [%]” value is 14% and the “Positive donors/donors tested [%]” value amounted to 50%.

“NYLPFIMEL (listed as Homo sapiens) [UCHL5-001]”: the “Positive wells/wells tested [%]” value was 14% and the “Positive donors/donors tested [%]” value was found to be 75%.

In the case of “VYKVVGNLL (listed as Homo sapiens) [IQGAP3-001]”, the “Positive wells/wells tested [%]” value is recorded as 24% and the “Positive donors/donors tested [%]” value is listed as 100%.

Turning to “VFDTAIAHLF (listed as Homo sapiens) [SIAH2-001]”, the “Positive wells/wells tested [%]” value is 4% and the “Positive donors/donors tested [%]” value worked out at 50%.

With “NYEETFPHI (listed as Homo sapiens) [MUC6-001]”, the “Positive wells/wells tested [%]” value is on record as 21% and the “Positive donors/donors tested [%]” value was determined as 50%.

Regarding “HYKPTPLYF (listed as Homo sapiens) [SMC4-001]”, the “Positive wells/wells tested [%]” value stood at 9% and the “Positive donors/donors tested [%]” value worked out at 75%.

Take “SYNPLWLRI (listed as Homo sapiens) [ASPM-002, gastric cancer associated TUMAP encoded by ASPM]”: the “Positive wells/wells tested [%]” value stood at 31% and the “Positive donors/donors tested [%]” value was 63%.

Take “AYLVYTDRL (listed as Homo sapiens) [PPAP2C-001]”: the “Positive wells/wells tested [%]” value is listed as 54% and the “Positive donors/donors tested [%]” value was 100%.

Take “FYISPVNKL (listed as Homo sapiens) [AVL9-001]”: the “Positive wells/wells tested [%]” value is reported as 50% and the “Positive donors/donors tested [%]” value came out at 100%.

For the sequence “SYIDVLPEF (listed as Homo sapiens) [MET-006]”, the “Positive wells/wells tested [%]” value is given as 22% and the “Positive donors/donors tested [%]” value is on record as 63%.

“VYIEKNDKL (listed as Homo sapiens) [ERBB3-001]”: the “Positive wells/wells tested [%]” value is on record as 15% and the “Positive donors/donors tested [%]” value worked out at 83%.

For “QYASRFVQL (listed as Homo sapiens) [PLK4-001]”, the “Positive wells/wells tested [%]” value is reported as 5% and the “Positive donors/donors tested [%]” value is 60%.

For “TYGNLLDYL (listed as Homo sapiens) [ABL1-001]”, the “Positive wells/wells tested [%]” value came to 13% and the “Positive donors/donors tested [%]” value amounted to 50%.

For the sequence “KYNDTFWKEF (listed as Homo sapiens) [HSP90B1-001]”, the “Positive wells/wells tested [%]” value is 4% and the “Positive donors/donors tested [%]” value was found to be 50%.

Source of the values: patent US9791444B2, “Method for differentially quantifying naturally processed HLA-restricted peptides for cancer, autoimmune and infectious diseases immunotherapy development” (IMMATICS BIOTECHNOLOGIES GMBH, priority 2010, dated 2017).
